From patent US9387195B2, “Methods for treating diseases using isoindoline compounds” (Celgene Corporation, priority 2011, dated 2016)

What was measured:
keratinocyte MxA [1] = test: pDC-keratinocyte co-culture with CpG-A stimulation, keratinocyte MxA level (Example 16); assay type: cell-based, human; details: for decrease in the keratinocyte MxA level: relative to Control BB2
Procedure: (§1) The Human pDC/HEKa Coculture involves stimulation with CpG-A oligodeoxynucleotide. CpG-A-stimulation would induce pDCs to secrete interferon-alpha (IFN-α) which in turn elicits increased expression of MxA protein from keratinocytes. HEKa were plated in 6-well plates at density of 1×10^5 cells/well and incubated overnight in a defined keratinocyte medium. The medium was removed in the next day and then 1.8×10^5 pDC cells, in defined pDC medium, were overlaid on the HEKa cells. Compound (II) was added to the medium to obtain final concentrations of 0.25 μM, 0.5 μM and 1 μM. One hour after the addition of Compound (II), CpG-A was added to each of the concentrations and then incubated overnight. Same samples from Example 15 were used here.
(§2) The cells were fixed and immunostained the co-cultures with antibodies to keratinocyte myxovirus resistance protein A (MxA) and Cytokeratin as follows using the ThermoScientific Cellomics High Content Screening (HCS) Readers using vHCS Scan Software.
(§3) Eighteen hours after the addition of Compound (II), cocultures were fixed for 30 minutes with BD fixation/permeabilization buffer, washed, and blocked with 2% normal goat serum/bovine serum albumin solution for an hour. Cocultures were then incubated overnight with primary antibodies to MxA and Cytokeratin. Cells were washed and incubated for an hour with Alexa anti-goat and anti-rabbit fluorescein (IgG1) or TRITC-conjugated (IgG) secondary antibodies. […] Cocultures were washed and incubated in 1X phosphate buffered saline (PBS) and plates scanned using Thermo Scientific ArrayScan VTI HCS Reader, a modular High Content Screening instrument designed for high-capacity automated fluorescence imaging and quantitative analysis of fixed and live cells. The output was analyzed using Cellomics Compartmental Analysis algorithm to quantitate fluorescence levels in the green and red channels. […] Mean fluorescence intensity levels of MxA and Cytokeratin of the samples were expressed as percentage of mean fluorescence intensity levels of MxA and cytokeratin of Control BB2. […]

IFN-α production [2] = test: IFN-α ELISA, CpG-A stimulated human PBMCs or pDCs (Example 15); assay type: cell-based
Procedure: (§4) The IFN-α and TNF-α levels were measured by enzyme-linked immunoabsorbant assay (ELISA) obtained from R&D System, Minneapolis, Minn., known as Human IFN-alpha ELISA Kit (PBL Interferon Source, Cat #41100-1) and Human TNF-alpha Quantikine ELISA Kit (ThermoScientific, Cat # EH3TNFA5) respectively. […] Compounds were diluted with DMSO (PBMCs) or media (pDCs) from a 4 mM stock of each compound to obtain different concentrations. Human PBMCs or pDCs were pretreated with different concentrations of compounds for an hour prior stimulation. Cells were then stimulated with 1 μM (PBMCs) or 10 μM (PDCs) CpG-A ODN 2216 for 18 hours. The samples with Compound (II) (0.25 μM, 0.5 μM and 1 μM) are labeled as Examples B1-B3; the samples with Compound (I) (0.25 μM, 0.5 μM and 1 μM) are labeled as Examples B4-B6; the samples with CC-930 (1.0 μM, 2.0 μM and 3.0 μM) are labeled as Examples B7-B9; and the samples with chloroquine (0.5 μM, 1.0 μM and 2.0 μM) are labeled as Examples B10-B12. Keratinocytes of samples (Examples B1-B12) cultured in the presence of pDCs were stimulated with CpG-A oligonucleotide. Two control experiments were done. The first control experiment (Control BB1) was done with similar procedures mentioned-above but without CpG-A stimulation and without the addition of inhibitors. The second control experiment (Control BB2) was done with similar procedures mentioned-above but without the addition of inhibitors. Supernatant was collected after 18 hours. IFN-α and TNF-α levels were assayed by ELISA according to manufacturer's instructions.

TNF-α production = test: TNF-α ELISA, CpG-A stimulated human PBMCs or pDCs (Example 15); assay type: cell-based
Procedure: as §4

IFN-α production [3] = test: IFN-α ELISA in CpG-A stimulated hPBMC (Example 18); assay type: cell-based, human; details: 1 μM CpG-A, 18 hours
Procedure: Human PBMCs (1×10^5 cells) were plated in 96-well plates (PBMCs) in RPMI media containing 10% FBS. Compounds were diluted with DMSO from a 4 mM stock of each compound to obtain different concentrations. Human PBMCs were pretreated with different concentrations of compounds for an hour prior stimulation. Cells were then stimulated with CpG-A ODN 2216 (1 μM) for 18 hours. […] The samples (Control E1 and Examples E2-E20) contained 1 μM CpG-A. Supernatant was collected after 18 hours. The IFN-α levels of samples were measured by the IFN-α ELISA obtained from PBL Interferon Source, Piscataway, N.J., known as Human IFN-alpha ELISA Kit. IFN-α levels of samples were assayed by the ELISA according to manufacturer's instructions. Inhibition of the production of IFN-α by individual compounds were determined in the CpG-A stimulated hPBMC cultures.

keratinocyte cytokeratin = test: pDC-keratinocyte co-culture with CpG-A stimulation, cytokeratin level (Example 16); assay type: cell-based, human; details: relative to Control BB2
Procedure: as §1, §2, §3

cytokeratin = test: Human pDC/HEKa coculture with CpG-A stimulation, cytokeratin level (Example 14); assay type: cell-based; details: 0.25-2 μM; relative to Example A1
Procedure: The Human pDC/HEKa Coculture involves stimulation with CpG-A oligodeoxynucleotide 2216. The CpG-A stimulation would induce pDCs to secrete interferon-alpha (IFN-α) which in turn elicits increased expression of MxA protein from keratinocytes. HEKa were plated in 6-well plates at density of 1×10^5 cells/well and incubated overnight in a defined keratinocyte medium. The medium was removed in the next day and then 1.8×10^5 pDC cells, in defined pDC medium, were overlaid on the HEKa cells. Compound (II) was added to the medium to obtain final concentrations of 0.25 μM, 0.5 μM, 1 μM and 2 μM. […]
as §2
Eighteen hours after the addition of Compound (II), cocultures were fixed for 30 minutes with BD fixation/permeabilization buffer, washed, and blocked with 2% normal goat serum/bovine serum albumin solution for an hour. […] Cocultures were washed and incubated in 1X phosphate buffered saline (PBS) and plates scanned using Thermo Scientific ArrayScan VTI HCS Reader, a modular High Content Screening instrument designed for high-capacity automated fluorescence imaging and quantitative analysis of fixed and live cells. […]

keratinocyte MxA [4] = test: Human pDC/HEKa coculture with CpG-A stimulation, keratinocyte MxA level (Example 14); assay type: cell-based; details: relative to CpG-A stimulated Example A1
Procedure: The Human pDC/HEKa Coculture involves stimulation with CpG-A oligodeoxynucleotide 2216. The CpG-A stimulation would induce pDCs to secrete interferon-alpha (IFN-α) which in turn elicits increased expression of MxA protein from keratinocytes. HEKa were plated in 6-well plates at density of 1×10^5 cells/well and incubated overnight in a defined keratinocyte medium. The medium was removed in the next day and then 1.8×10^5 pDC cells, in defined pDC medium, were overlaid on the HEKa cells. Compound (II) was added to the medium to obtain final concentrations of 0.25 μM, 0.5 μM, 1 μM and 2 μM. One hour after the addition of Compound (II), CpG-A was added to each of these concentrations and then incubated overnight.
as §2
Eighteen hours after the addition of Compound (II), cocultures were fixed for 30 minutes with BD fixation/permeabilization buffer, washed, and blocked with 2% normal goat serum/bovine serum albumin solution for an hour. Cocultures were then incubated overnight with primary antibodies to MxA and Cytokeratin. Cells were washed and incubated for an hour with Alexa anti-goat and anti-rabbit fluorescein (IgG1) or TRITC-conjugated (IgG) secondary antibodies. Nuclei were stained with DAPI or 4′,6-diamidino-2-phenylindole. Cocultures were washed and incubated in 1X phosphate buffered saline (PBS) and plates scanned using Thermo Scientific ArrayScan VTI HCS Reader, a modular High Content Screening instrument designed for high-capacity automated fluorescence imaging and quantitative analysis of fixed and live cells. The output was analyzed using Cellomics Compartmental Analysis algorithm to quantitate fluorescence levels in the green and red channels. Data was exported to Microsoft Excel worksheets. Mean fluorescence intensity levels of MxA and Cytokeratin of the samples were expressed as percentage of mean fluorescence intensity levels of MxA and cytokeratin of Example A1. Histograms were generated and statistical analysis was performed using GraphPad Prism v4.0 (GraphPad Software, Inc., San Diego, Calif.).
FIGS. 1-2 show the levels of keratinocyte MxA and cytokeratin of the samples averaged from four independent experiments relative to the keratinocyte MxA and cytokeratin levels of Example A1 with pDCs derived from separate donors. […]

[5] = 0.25, 0.5 and 1 μM, relative to CpG-A stimulation (Control BB2), P<0.0001
[6] = 0.25, 0.5 and 1 μM, relative to CpG-A stimulation (Control BB2)
[7] = 1.0, 2.0 and 3.0 μM (Examples B7-B9), relative to Control BB2
[8] = Homo sapiens, PBMC, read-out: inhibition of the production of IFN-α

SMILES: CCOc1cc(C(CS(C)(=O)=O)N2C(=O)c3cccc(NC(C)=O)c3C2=O)ccc1OC (single isomer, unassigned; (+)) [Compound (I), (+)-2-[1-(3-ethoxy-4-methoxyphenyl)-2-methylsulfonylethyl]-4-acetylaminoisoindoline-1,3-dione]
- ability to inhibit the production of the keratinocyte MxA, among the compounds tested (keratinocyte MxA [1]; 0.25, 0.5 and 1 μM (Examples B4-B6)): greatest ability to inhibit
- inhibition of the production of IFN-α (IFN-α production [2]; [5]): inhibited
- inhibition of the production of TNF-α (TNF-α production; [6]): inhibited
- inhibition of the production of IFN-α (IFN-α production [3]; 0.5 μM, versus Control E1): significant inhibition
- inhibition of the production of IFN-α (IFN-α production [3]; 5 μM, versus Control E1): significant inhibition
- effect on the keratinocyte cytokeratin (keratinocyte cytokeratin): no significant effect

SMILES: O[C@H]1CC[C@H](Nc2ncc3nc(Nc4c(F)cc(F)cc4F)n([C@H]4CCOC4)c3n2)CC1 [CC-930, reference compound]
- decrease in the keratinocyte MxA level (keratinocyte MxA [1]; 1 μM, P<0.05): 32%
- inhibition of the production of IFN-α (IFN-α production [2]; [7]): approximately 25%
- inhibition of the production of TNF-α (TNF-α production; [7]): approximately 25%
- inhibition of the production of IFN-α (IFN-α production [3]; 10 μM, versus Control E1): inhibited
- effect on the keratinocyte cytokeratin (keratinocyte cytokeratin): no significant effect

SMILES: CCN(CC)CCCC(C)Nc1ccnc2cc(Cl)ccc12 (stereo not drawn) [Chloroquine, chloroquine]
- inhibition at 1 µM (IFN-α production [2]; [8]): ~75%
- inhibition at 2 µM (IFN-α production [2]; [8]): ~75%
- inhibition at 2 µM (TNF-α production; Homo sapiens, PBMC, read-out: inhibition of the production of TNF-α): ~50%
- inhibition of the production of IFN-α (IFN-α production [3]; 5 μM, versus Control E1): induced inhibition

SMILES: CCOc1cc([C@@H](CS(C)(=O)=O)N2Cc3cccc(NC(=O)C4CC4)c3C2=O)ccc1OC [Compound (II), Cyclopropyl{2-[(1S)-1-(3-ethoxy-4-methoxyphenyl)-2-(methylsulfonyl)ethyl]-3-oxoisoindolin-4-yl}carboxamide]
- decrease in the keratinocyte MxA level (keratinocyte MxA [1]; 0.25, 0.5 and 1 μM (Examples B1-B3)): 13-15%
- inhibition of the production of IFN-α (IFN-α production [2]; [5]): inhibited
- effect on the cytokeratin levels on the keratinocytes (cytokeratin): no effect
- inhibition of the production of TNF-α (TNF-α production; [6]): inhibited
- inhibition of the production of IFN-α (IFN-α production [3]; 0.5 μM, versus Control E1): significant inhibition
- inhibition of the production of IFN-α (IFN-α production [3]; 5 μM, versus Control E1): significant inhibition
- effect on the keratinocyte cytokeratin (keratinocyte cytokeratin): no significant effect
- decrease in the keratinocyte MxA protein levels (keratinocyte MxA [4]; 0.25 μM): 19%
- decrease in the keratinocyte MxA protein levels (keratinocyte MxA [4]; 0.5 μM): 39%
- decrease in keratinocyte MxA levels (keratinocyte MxA [4]; 1 μM): 29%
- decrease in keratinocyte MxA levels (keratinocyte MxA [4]; 2 μM): 40%

SMILES: Nc1cccc2c1CN(C1CCC(=O)NC1=O)C2=O (stereo not drawn) [Lenalidomide, lenalidomide]
- inhibition of the production of IFN-α (IFN-α production [3]; 10 μM, versus Control E1): did not affect

SMILES: CCN(CC)CCCC(C)Nc1c2ccc(Cl)cc2nc2ccc(OC)cc12 (stereo not drawn) [Quinacrine, quinacrine]
- inhibition of the production of IFN-α (IFN-α production [3]; 0.5 and 5 μM (Examples E19-E20)): inhibited

SMILES: CCN(CCO)CCCC(C)Nc1ccnc2cc(Cl)ccc12 (stereo not drawn) [hydroxychloroquine]
- inhibition of the production of IFN-α (IFN-α production [3]; 5 μM, versus Control E1): induced inhibition

SMILES: O=C1CCC(N2C(=O)c3ccccc3C2=O)C(=O)N1 (stereo not drawn) [thalidomide]
- inhibition of the production of IFN-α (IFN-α production [3]; 10 μM, versus Control E1): did not affect
